Test results reported in PubChem BioAssay AID2060906 (Molecular Pharmacology Branch, DTP, NCI, 2025).

Tested on: 485176-168-R4-J1-PDC complex spheroid growth
Test: Anticancer human tumor 485176-168-R4-J1-PDC patient-derived pancreatic adenocarcinoma cell line growth inhibition [RAS]
Settings: for IC50: curve of first compound; for viability, T/C: stronger effect = lower value; active means viability on the fitted dose curve at most 10% of control; inactive means the rest
Outline: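 Multi-cell-type spheroids: tumor cells plus HUVEC endothelial cells and mesenchymal stem cells. RAS-pathway inhibitors were combined with targeted agents, each dosed in half-log steps down from clinical Cmax, or from 10 microM when Cmax was unknown.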
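Further: spheroids exposed to compounds for seven days before readout.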
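Wherever viability, T/C is given: luminescence viability expressed relative to DMSO vehicle wells set as 100%.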

C[C@@H](NC(=O)c1ncnc(N)c1Cl)c1ncc(C(=O)Nc2cc(C(F)(F)F)c(Cl)cn2)s1 + C=CC(=O)N1CCN(c2nc(OCC3CCCN3C)nc3c(F)c(-c4nc(N)cc(C)c4C(F)(F)F)c(Cl)cc23)C(C)C1
> 10 µM: IC50 (second compound 0.00316 µM) | IC50 (second compound 0.01 µM) | IC50 (second compound 0.0316 µM) | IC50 (second compound 0.1 µM) | IC50 (second compound 0.316 µM) | IC50 (second compound 1 µM)
inactive: viability, T/C (second compound 0.00316 µM, first compound 0.0316 µM) 106% | viability, T/C (second compound 0.00316 µM, first compound 0.1 µM) 104% | viability, T/C (second compound 0.00316 µM, first compound 0.316 µM) 101% | viability, T/C (second compound 0.00316 µM, first compound 1 µM) 86.2% | viability, T/C (second compound 0.00316 µM, first compound 3.16 µM) 84.7% | viability, T/C (second compound 0.00316 µM, first compound 10 µM) 56.9% | viability, T/C (second compound 0.01 µM, first compound 0.0316 µM) 96.1% | viability, T/C (second compound 0.01 µM, first compound 0.1 µM) 94% | viability, T/C (second compound 0.01 µM, first compound 0.316 µM) 96.5% | viability, T/C (second compound 0.01 µM, first compound 1 µM) 75.8% | viability, T/C (second compound 0.01 µM, first compound 3.16 µM) 81.3% | viability, T/C (second compound 0.01 µM, first compound 10 µM) 60.3% | viability, T/C (second compound 0.0316 µM, first compound 0.0316 µM) 111% | viability, T/C (second compound 0.0316 µM, first compound 0.1 µM) 98.4% | viability, T/C (second compound 0.0316 µM, first compound 0.316 µM) 100% | viability, T/C (second compound 0.0316 µM, first compound 1 µM) 81.1% | viability, T/C (second compound 0.0316 µM, first compound 3.16 µM) 75.6% | viability, T/C (second compound 0.0316 µM, first compound 10 µM) 59.3% | viability, T/C (second compound 0.1 µM, first compound 0.0316 µM) 89.5% | viability, T/C (second compound 0.1 µM, first compound 0.1 µM) 92.3% | viability, T/C (second compound 0.1 µM, first compound 0.316 µM) 101% | viability, T/C (second compound 0.1 µM, first compound 1 µM) 92% | viability, T/C (second compound 0.1 µM, first compound 3.16 µM) 78.5% | viability, T/C (second compound 0.1 µM, first compound 10 µM) 63.4% | viability, T/C (second compound 0.316 µM, first compound 0.0316 µM) 108% | viability, T/C (second compound 0.316 µM, first compound 0.1 µM) 102% | viability, T/C (second compound 0.316 µM, first compound 0.316 µM) 101% | viability, T/C (second compound 0.316 µM, first compound 1 µM) 79.3% | viability, T/C (second compound 0.316 µM, first compound 3.16 µM) 83.2% | viability, T/C (second compound 0.316 µM, first compound 10 µM) 53% | viability, T/C (second compound 1 µM, first compound 0.0316 µM) 100% | viability, T/C (second compound 1 µM, first compound 0.1 µM) 95.7% | viability, T/C (second compound 1 µM, first compound 0.316 µM) 77.3% | viability, T/C (second compound 1 µM, first compound 1 µM) 88.5% | viability, T/C (second compound 1 µM, first compound 3.16 µM) 63.7% | viability, T/C (second compound 1 µM, first compound 10 µM) 52.1%

CC(=O)OC12COC1CC(O)C1(C)C(=O)C(O)C3=C(C)C(OC(=O)C(O)C(NC(=O)OC(C)(C)C)c4ccccc4)CC(O)(C(OC(=O)c4ccccc4)C21)C3(C)C (centres undefined) + CCn1c(-c2cc(N3CCN(C)CC3)cnc2C(C)OC)c2c3cc(ccc31)-c1csc(n1)CC(NC(=O)C1CC1C)C(=O)N1CCCC(N1)C(=O)OCC(C)(C)C2
inactive: viability, T/C (second compound 0.000949 µM, first compound 0.0316 µM) 16.7% | viability, T/C (second compound 0.000949 µM, first compound 0.1 µM) 15.2% | viability, T/C (second compound 0.000949 µM, first compound 0.316 µM) 13.1% | viability, T/C (second compound 0.000949 µM, first compound 1 µM) 13.9% | viability, T/C (second compound 0.000949 µM, first compound 3.16 µM) 15.6% | viability, T/C (second compound 0.000949 µM, first compound 10 µM) 19.6% | viability, T/C (second compound 0.003 µM, first compound 0.0316 µM) 14.1% | viability, T/C (second compound 0.003 µM, first compound 0.1 µM) 13.2% | viability, T/C (second compound 0.003 µM, first compound 0.316 µM) 10.9% | viability, T/C (second compound 0.003 µM, first compound 1 µM) 15.5% | viability, T/C (second compound 0.003 µM, first compound 3.16 µM) 13.1% | viability, T/C (second compound 0.003 µM, first compound 10 µM) 17.9% | viability, T/C (second compound 0.00949 µM, first compound 0.0316 µM) 17.2% | viability, T/C (second compound 0.00949 µM, first compound 0.1 µM) 12.8% | viability, T/C (second compound 0.00949 µM, first compound 0.316 µM) 12.7% | viability, T/C (second compound 0.00949 µM, first compound 1 µM) 12.8% | viability, T/C (second compound 0.00949 µM, first compound 3.16 µM) 13.2% | viability, T/C (second compound 0.00949 µM, first compound 10 µM) 20.1% | viability, T/C (second compound 0.03 µM, first compound 0.0316 µM) 12.3% | viability, T/C (second compound 0.03 µM, first compound 0.1 µM) 13.4% | viability, T/C (second compound 0.03 µM, first compound 0.316 µM) 13.8% | viability, T/C (second compound 0.03 µM, first compound 1 µM) 10.8% | viability, T/C (second compound 0.03 µM, first compound 3.16 µM) 16.5% | viability, T/C (second compound 0.03 µM, first compound 10 µM) 21% | viability, T/C (second compound 0.0949 µM, first compound 0.0316 µM) 14.2% | viability, T/C (second compound 0.0949 µM, first compound 0.1 µM) 11.9% | viability, T/C (second compound 0.0949 µM, first compound 0.316 µM) 11.8% | viability, T/C (second compound 0.0949 µM, first compound 1 µM) 9.97% | viability, T/C (second compound 0.0949 µM, first compound 3.16 µM) 14.9% | viability, T/C (second compound 0.0949 µM, first compound 10 µM) 15.9% | viability, T/C (second compound 0.3 µM, first compound 0.0316 µM) 15.5% | viability, T/C (second compound 0.3 µM, first compound 0.1 µM) 13.1% | viability, T/C (second compound 0.3 µM, first compound 0.316 µM) 9.69% | viability, T/C (second compound 0.3 µM, first compound 1 µM) 12.8% | viability, T/C (second compound 0.3 µM, first compound 3.16 µM) 15.8% | viability, T/C (second compound 0.3 µM, first compound 10 µM) 14.7%
< 0.0316 µM: IC50 (second compound 0.000949 µM) | IC50 (second compound 0.003 µM) | IC50 (second compound 0.00949 µM) | IC50 (second compound 0.03 µM) | IC50 (second compound 0.0949 µM) | IC50 (second compound 0.3 µM)
